According to the NIST ThermoML archive (doi:10.1021/acs.jced.7b00503):

Test: wn = mass fraction of the nth substance listed
Conditions: Pendant drop shape

O [water] + [Br-].[K+]
w2 = 0
Conditions | surface tension liquid-gas [mN/m]
293.15 K | 72.75
303.15 K | 71.15
313.15 K | 69.55
323.15 K | 67.9
333.15 K | 66.17
343.15 K | 64.39
353.15 K | 62.61

[Cl-].[Na+] [sodium chloride] + O
surface tension liquid-gas [mN/m]
Conditions | w1 = 0.025 | w1 = 0.05 | w1 = 0.075 | w1 = 0.1 | w1 = 0.125 | w1 = 0.15 | w1 = 0.175 | w1 = 0.2 | w1 = 0.225 | w1 = 0.25
293.15 K | 73.42 | 74.09 | 74.85 | 75.6 | 76.54 | 77.52 | 78.7 | 79.82 | 81.03 | 81.95
298.15 K | 72.63 | 73.32 | 74.15 | 74.9 | 75.8 | 76.7 | 77.82 | 78.85 | 80.32 | 81.41
303.15 K | 71.83 | 72.56 | 73.35 | 74.17 | 75.09 | 76.11 | 77.2 | 78.26 | 79.77 | 80.8
313.15 K | 70.33 | 71.12 | 71.95 | 72.81 | 73.86 | 74.9 | 75.98 | 76.99 | 78.54 | 79.7
323.15 K | 68.93 | 69.91 | 70.62 | 71.32 | 72.46 | 73.55 | 74.68 | 75.71 | 77.32 | 78.45
333.15 K | 67.21 | 68.24 | 69.21 | 70.14 | 71.18 | 72.22 | 73.43 | 74.52 | 76.01 | 77.14

[I-].[Na+] [sodium iodide] + O
surface tension liquid-gas [mN/m]
Conditions | 293.15 K | 298.15 K | 303.15 K | 313.15 K | 323.15 K | 333.15 K
w1 = 0.05 | 73.15 | 72.4 | 71.66 | 70.23 | 68.78 | 67.4
w1 = 0.1 | 73.6 | 73 | 72.22 | 70.81 | 69.34 | 67.93
w1 = 0.15 | 74.17 | 73.48 | 72.79 | 71.36 | 69.81 | 68.42
w1 = 0.2 | 74.7 | 73.96 | 73.34 | 71.85 | 70.35 | 68.86
w1 = 0.25 | 75.15 | 74.4 | 73.8 | 72.45 | 70.95 | 69.43
w1 = 0.3 | 75.5 | 74.9 | 74.26 | 72.92 | 71.56 | 69.96
w1 = 0.35 | 76.29 | 75.71 | 75.08 | 73.76 | 72.5 | 71.19
w1 = 0.4 | 77.1 | 76.5 | 75.85 | 74.6 | 73.35 | 72.24
w1 = 0.45 | 78.25 | 77.63 | 77.03 | 75.96 | 74.77 | 73.77
w1 = 0.5 | 79.35 | 78.85 | 78.34 | 77.3 | 76.17 | 75.04
w1 = 0.55 | 80.66 | 80.14 | 79.68 | 78.66 | 77.68 | 77.15

O [water] + [Cl-].[Na+]
w2 = 0
Conditions | surface tension liquid-gas [mN/m]
293.15 K | 72.75
298.15 K | 71.97
303.15 K | 71.15
313.15 K | 69.55
323.15 K | 67.9
333.15 K | 66.17
